Laboratory results from US20230041138A1, “TREATMENT OF HIS HYPORESPONDERS” (NewAmsterdam Pharma B.V. (Dutch Registration No. 55971946), priority 2021, published 2023).
Several values for one entry are separate records, joined by “and”; a condition that tells them apart may be missing. Identical values can stand only once. Like-named read-outs stand apart in the source and are kept apart here.

Key:
[1] = tested on: Lipoprotein, lipid and apolipoprotein concentrations; assay: Phase 2 placebo-controlled study of obicetrapib as adjunct to high-intensity statin therapy: lipid efficacy; type: in vivo, human; conditions: for Apo A1, week 8 change, LS Mean ± SE / Apo B, week 8 change, LS Mean ± SE / HDL-C, week 8 change, LS Mean ± SE / LDL-C (Martin-Hopkins), week 8 change, LS Mean ± SE / Lp(a), week 8 change, LS Mean ± SE / Non-HDL-C, week 8 change, LS Mean ± SE / TG, week 8 change, LS Mean ± SE / VLDL-C, week 8 change, LS Mean ± SE / LDL-C by Friedewald, % change from baseline, LS mean: MMRM; for LDL-C (PUC), week 8 change, LS Mean ± SE (Table 9): analysis of covariance model; for LDL-C (Friedewald formula) reduced from baseline by: primary analysis; for LDL-C (Friedewald formula) reduced from baseline by / Apo B reduced by / Lp(a) reduced by / non-HDL-C reduced by: stated as reduction; for ApoB, % change from baseline, median / HDL-C, % change from baseline, median / LDL-C by Friedewald, % change from baseline (median) / LDL-C by PUC, % change from baseline (median) / Non-HDL-C, % change (median) from baseline / LDL-C by Friedewald, % change from baseline, LS mean: week 8, on top of high-intensity statin
Procedure: The study consisted of three arms: 1) 5 mg obicetrapib as adjunctive therapy; 2) 10 mg obicetrapib as adjunctive therapy and 3) a placebo arm. The second objective was to evaluate other lipoprotein lipid and apolipoprotein responses, safety and tolerability profiles, and plasma concentrations of obicetrapib during treatment and for several weeks of follow-up. Lastly, this study aimed to determine if different quantitative measures of LDL-C levels produced differences in the treatment effects of CETP inhibition.
This randomised, double-blind, placebo-controlled, parallel-group phase 2 trial was conducted in male and female patients (18-75 years), treated with high-intensity statin therapy, with LDL-C levels >70 mg/DL and TG levels <400 mg/dL. Key exclusion criteria were patients with BMI >40 kg/m; Significant cardiovascular disease; HbAc >10%; Uncontrolled hypertension; Active muscle disease; GFR <60 ml/min; Hepatic dysfunction; Anemia; History of malignancy; Alcohol abuse; Treatment with investigational product; Treatment with PCSK9 inhibitor; Clinically significant condition; and/or prior exposure to a CETP inhibitor. Patients were recruited at 19 sites in the United States. The trial was approved by Independent Ethics Committees, and each patient provided written informed consent. The trial was conducted in accordance with the principles of the Declaration of Helsinki and Good Clinical Practice Guidelines and the protocol was registered on ClinicalTrials.gov (NCT04753606).
The screening period for this study took up to 2-weeks. Afterwards patients were randomized to placebo, 5 mg obicetrapib or 10 mg obicetrapib for an 8-week treatment period. After the treatment period, patients continued for a 4-week safety follow-up and a 15-week PK follow-up.
Patients were randomly assigned to receive one of the three treatments investigative treatments. All treatments were to be taken once daily with food for 8 weeks. Safety was assessed throughout the trial by monitoring adverse events and concomitant medication use, 12-lead electrocardiograms (ECGs), vital signs, laboratory safety assessments and physical examinations. Additional assessments included salivary cortisol, plasma aldosterone, high-sensitivity C-reactive protein (hsCRP) and endothelin 1.
Efficacy assessments included fasted lipid profiles including total cholesterol (TC), HDL-C, LDL-C, triglycerides, apolipoprotein B (ApoB), and derived parameters.
Total cholesterol and triglycerides were measured by homogenous enzymatic assay using a Modular analyser (cholesterol oxidase peroxidase-peroxidase aminophenazone phenol [CHOP-PAP]) method and a glycerol phosphate oxidase [GPO-PAP] method, respectively. Apolipoprotein B was measured by immunoturbidimetry using reagents from Rolf Greiner Biochemica (Germany) and N apoprotein standard serum from Siemens (Germany). LDL particle size was determined by gradient gel electrophoresis. HDL fraction was separated by a combined ultracentrifugation-precipitation method (β-quantification). HDL-2 and HDL-3 fractions were then separated by further ultracentrifugation. Total-cholesterol in HDL, HDL 2 and HLD-3 fractions, free cholesterol in HDL fraction, triglycerides in HDL fraction and phospholipids in plasma and HDL-fraction were measured using enzymatic methods and reagents from Diasys Diagnostics (Germany). The measurements were performed on an Olympus AU600 automatic analyzer and were calibrated using secondary standards from Roche Diagnostics (total-cholesterol, triglycerides) and Diasys Diagnostics (free cholesterol, phospholipids), respectively. Esterified cholesterol was calculated as the difference between total-cholesterol and free cholesterol.
The primary outcome measure was LDL-C (percent change). Secondary outcome measures included ApoB, Non-HDL-C and HDL-C (percent change). The Intent-to-Treat (ITT) Population included all participants randomized into the study. […]

LDL-C = conditions: cited from earlier work
[2] = 5 mg once daily for 8 weeks on top of high-intensity statin
[3] = 5 mg once daily on top of high-intensity statin
[4] = 5 mg once daily on top of high-intensity statin, listed as obicetrapib
[5] = 5 mg once daily, 8 weeks, on top of high-intensity statin
[6] = 10 mg once daily for 8 weeks on top of high-intensity statin
[7] = 10 mg once daily on top of high-intensity statin
[8] = 10 mg once daily, 8 weeks, on top of high-intensity statin

Structure (SMILES): CCOC(=O)N1c2ccc(C(F)(F)F)cc2[C@@H](N(Cc2cc(C(F)(F)F)cc(C(F)(F)F)c2)c2ncc(OCCCC(=O)O)cn2)C[C@H]1CC [Obicetrapib, (2R,4S)-4-{[3,5-bis(trifluoromethyl)benzyl]-[5-(3-carboxypropoxy)pyrimidin-2-yl]amino}-2-ethyl-6-trifluoromethyl-3,4-dihydro-2H-quinoline-1-carboxylic acid ethyl ester]
- Time of treatment at which maximum LDL-C reductions were already present ([1]; 5 mg and 10 mg add-on to high-intensity statin): ≤ 4 weeks
- ApoB, EoT median [1, 2]: 65.0 mg/dL
- ApoB, change from baseline, median [1, 2]: -22.0 mg/dL
- HDL-C, EoT median [1, 2]: 107.0 mg/dL
- HDL-C, change from baseline, median [1, 2]: 60.0 mg/dL
- LDL-C by Friedewald, EoT median [1, 2]: 51.0 mg/dL
- LDL-C by PUC, EoT median [1, 2]: 53.0 mg/dL
- Non-HDL-C, EoT median [1, 2]: 71 mg/dL
- Apo A1, week 8 change, median (min, max) [1, 3]: 44.6% and 44.6 (−10.0, 87.1) %
- LDL-C (Martin-Hopkins), week 8 change, median (min, max) [1, 3]: −42.5 (−80.8, 74.4) %
- Lp(a), week 8 change, median (min, max) [1, 3]: −33.8 (−84.6, 93.8) %
- TG, week 8 change, median (min, max) [1, 3]: −11.0 (−53.3, 86.7) %
- VLDL-C, week 8 change, median (min, max) [1, 3]: −11.5 (−53.5, 83.3) %
- Apo A1, week 8 change, LS Mean ± SE [1, 3]: 41.1 ± 3.04%
- Apo B, week 8 change, LS Mean ± SE [1, 3]: −22.4 ± 2.58%
- HDL-C, week 8 change, LS Mean ± SE [1, 3]: 122 ± 6.59%
- LDL-C (Martin-Hopkins), week 8 change, LS Mean ± SE [1, 3]: −39.6 ± 3.68%
- Lp(a), week 8 change, LS Mean ± SE [1, 3]: −30.9 ± 4.43%
- Non-HDL-C, week 8 change, LS Mean ± SE [1, 3]: −34.4 ± 3.18%
- TG, week 8 change, LS Mean ± SE [1, 3]: −6.63 ± 5.32%
- VLDL-C, week 8 change, LS Mean ± SE [1, 3]: −6.02 ± 5.24%
- LDL-C (PUC), week 8 change, LS Mean ± SE (Table 9) [1, 3]: −35.7 ± 3.31%
- LDL-C (Martin-Hopkins), week 8 change, median (min, max) [1, 4]: 42.5%
- TG, week 8 change, median (min, max) [1, 4]: −11.0%
- VLDL-C, week 8 change, median (min, max) [1, 4]: −11.5%
- LDL-C by PUC, % change from baseline, LS mean (Table 3) [1, 5]: −37.98%
- LDL-C (Friedewald formula) reduced from baseline by [1, 5]: 42.9%
- Apo B reduced by [1, 5]: 24.4%
- Lp(a) reduced by [1, 5]: 33.8%
- non-HDL-C reduced by [1, 5]: 38.9%
- ApoB, % change from baseline, median ([1]; 5 mg once daily): −24.40% and −24.4 (−58.5, 47.4) %
- HDL-C, % change from baseline, median ([1]; 5 mg once daily): 135% and 135.4% and 135 (−26.4, 213) %
- LDL-C by Friedewald, % change from baseline (median) ([1]; 5 mg once daily): −42.90% and −42.9 (−81.9, 72.4) %
- LDL-C by PUC, % change from baseline (median) ([1]; 5 mg once daily): −41.5% and −41.45% and −41.5 (−71.2, 62.3) %
- Non-HDL-C, % change (median) from baseline ([1]; 5 mg once daily): −38.9% and −38.9 (−65.6, 66.3) %
- LDL-C by Friedewald, % change from baseline, LS mean ([1]; 5 mg once daily): −37.94% and −38.0 ± 3.49%
- LDL-C by PUC, % change from baseline (median) ([1]; 5 mg once daily, listed as obicetrapib): −41.5%
- ApoB, EoT median [1, 6]: 58.5 mg/dL
- ApoB, change from baseline, median [1, 6]: -24.5 mg/dL
- HDL-C, EoT median [1, 6]: 117.5 mg/dL
- HDL-C, change from baseline, median [1, 6]: 72.0 mg/dL
- LDL-C by Friedewald, EoT median [1, 6]: 52.0 mg/dL
- LDL-C by PUC, EoT median [1, 6]: 49.5 mg/dL
- Non-HDL-C, EoT median [1, 6]: 69 mg/dL
- Apo A1, week 8 change, median (min, max) [1, 7]: 47.8% and 47.8 (13.5, 106) %
- LDL-C (Martin-Hopkins), week 8 change, median (min, max) [1, 7]: −49.2 (−77.0, 28.1) %
- Lp(a), week 8 change, median (min, max) [1, 7]: −56.5 (−85.7, 18.3) %
- TG, week 8 change, median (min, max) [1, 7]: −7.85 (−63.7, 129) %
- VLDL-C, week 8 change, median (min, max) [1, 7]: −7.90 (−44.4, 125) %
- Apo A1, week 8 change, LS Mean ± SE [1, 7]: 52.3 ± 3.04%
- Apo B, week 8 change, LS Mean ± SE [1, 7]: −28.1 ± 2.56%
- HDL-C, week 8 change, LS Mean ± SE [1, 7]: 157 ± 6.54%
- LDL-C (Martin-Hopkins), week 8 change, LS Mean ± SE [1, 7]: −46.9 ± 3.65%
- Lp(a), week 8 change, LS Mean ± SE [1, 7]: −42.0 ± 4.33%
- Non-HDL-C, week 8 change, LS Mean ± SE [1, 7]: −39.9 ± 3.15%
- TG, week 8 change, LS Mean ± SE [1, 7]: 2.45 ± 5.27%
- VLDL-C, week 8 change, LS Mean ± SE [1, 7]: 3.08 ± 5.19%
- LDL-C (PUC), week 8 change, LS Mean ± SE (Table 9) [1, 7]: −46.8 ± 3.23%
- LDL-C (Martin-Hopkins), week 8 change, median (min, max) ([1]; 10 mg once daily on top of high-intensity statin, listed as obicetrapib): −49.2%
- LDL-C by PUC, % change from baseline, LS mean (Table 3) [1, 8]: −44.15%
- TG and VLDL-C, comparison with placebo [1, 8]: not significantly different
- LDL-C (Friedewald formula) reduced from baseline by [1, 8]: 45.7%
- Apo B reduced by [1, 8]: 29.8%
- Lp(a) reduced by [1, 8]: 56.5%
- non-HDL-C reduced by [1, 8]: 44.4%
- ApoB, % change from baseline, median ([1]; 10 mg once daily): −29.75% and −29.8 (−58.4, 13.0) %
- HDL-C, % change from baseline, median ([1]; 10 mg once daily): 165% and 165 (55.1,286) %
- LDL-C by Friedewald, % change from baseline (median) ([1]; 10 mg once daily): −45.65% and −45.7 (−78.0, 26.2) %
- LDL-C by PUC, % change from baseline (median) ([1]; 10 mg once daily): −50.8% and −50.75% and −50.8 (−76.9, 15.6) %
- Non-HDL-C, % change (median) from baseline ([1]; 10 mg once daily): −44.4% and −44.4 (.70.2, 22.5) %
- LDL-C by Friedewald, % change from baseline, LS mean ([1]; 10 mg once daily): −44.15% and −44.2 ± 3.46%
- LDL-C by PUC, % change from baseline (median) ([1]; 10 mg once daily, listed as obicetrapib): −50.8%
- median Apo B reduction from baseline, post-hoc analysis ([1]; 10 mg, individuals with baseline Apo B >100 mg/dL): 39%
- LDL-C reduction (LDL-C; 1 mg for 12 weeks, mild dyslipidemia): 27%
- LDL-C reduction (LDL-C; 2.5 mg for 12 weeks, mild dyslipidemia): 33%
- LDL-C reduction (LDL-C; 5 mg for 12 weeks, mild dyslipidemia): 45%
- LDL-C reduction (LDL-C; 10 mg for 12 weeks, mild dyslipidemia): 45%
- LDL-C reduction (LDL-C; 10 mg obicetrapib plus 10 mg rosuvastatin): 63%
- LDL-C reduction (LDL-C; 10 mg obicetrapib plus 20 mg atorvastatin): 68%
- incremental LDL-C reduction compared with statin monotherapy (LDL-C; daily 10 mg with moderate-intensity statins (20 mg atorvastatin or 10 mg rosuvastatin), 12 weeks): up to 50%
